Key:
Type in all cases: physicochemical
[1] = Dynamic moisture sorption gravimetry (DMSG); details: for Δ-Wt (%) DMSG: 0-90% RH: moisture sorption weight change; for moisture absorption (Δ-Wt(%) DMSG) relative to other salts: comparison with other salts
Experimental: Dynamic moisture sorption gravimetry (DMSG): DMSG isotherms were collected on the variable temperature controlled atmospheric microbalance, CAM. Approximately 10 mg samples were used in the balance, samples were run as received. The humidity was set at ambient conditions on the day analysis began. After the first scan with fast scan rate from ambient RH to 0% RH; the DMSG analysis followed with three more scans: 0% RH to 90% RH, 90% RH to 0% RH, 0% RH to 90% RH. The scan rate was 3% RH/step. The mass was measured every two minutes and an equilibrium window of 5 points within 0.001 mg. The RH was changed to the next value (+/−3% RH) when the mass of the sample was stable to within 1.0 μg. The Visual Basic program dmsgscn2.exe was used to control the data collection and export the information to an Excel spreadsheet.

[2] = Two-week solid-state stability at stressed conditions (high RH / high temperature), assessed by Powder-XRD; details: for Stability at high Temp (70° C.) / Stability at high RH (88%): two weeks, Powder-XRD; for Stability at high RH (88%): 88% RH; for physical stability at stressed conditions (high temperature and/or high humidity) relative to other salts: comparison with other salts
Experimental: X-ray Diffraction (XRD) Analysis: A Scintag X-2 theta/theta scanning diffractometer (Scintag Inc., Cupertino Calif.) was employed for the XRD data acquisition for this study. […] Major instrumental parameters are set as follows: 45 KV voltage, 40 mA current, divergent slit width of 2 mm, detector scatter slit width of 0.5 mm and receiving slit width of 0.3 mm. Each XRD pattern was scanned over the spectral range of 2-40° two-theta angle with a step scan algorithm with a step size of 0.03° two-theta angle/step. The raw XRD data, exported in ASCII format, is then converted to the binary format with Galactic's Grams software (Galactic Industries Corp., Salem N.H.) for data analysis, storage and output.

[3] = Conversion of crystal form II to form I upon stirring in aqueous or hot-ethanol
Description: See results in Table 2 below.

Molecule | Δ-Wt (%) DMSG: 0-90% RH [1] | Stability at high Temp (70° C.) [2] | Stability at high RH (88%) [2] | moisture absorption (Δ-Wt(%) DMSG) relative to other salts [1] | physical stability at stressed conditions (high temperature and/or high humidity) relative to other salts [2] | further results
CC(=O)Nc1cc(N2CCCNCC2)ccc1S(=O)(=O)c1cccc(F)c1.O=C(O)/C=C/C(=O)O [Example 9, N-{5-(1,4-diazepan-1-yl)-2-[(3-fluorophenyl)sulfonyl]phenyl}acetamide Hemi-fumarate] | 3.0% | Stable | Unstable** |  |  | 
N-{5-(1,4-diazepan-1-yl)-2-[(3-fluorophenyl)sulfonyl]phenyl}acetamide Hemi-succinate [Example 7] | 5.0% | Unstable** | Unstable** |  |  | 
N-{5-(1,4-diazepan-1-yl)-2-[(3-fluorophenyl)sulfonyl]phenyl}acetamide Hemi-malate [Example 10] | 1.5% | Unstable** | Stable |  |  | 
CC(=O)Nc1cc(N2CCCNCC2)ccc1S(=O)(=O)c1cccc(F)c1.O=C(O)/C=C\C(=O)O [Example 5 (Form II), N-{5-(1,4-diazepan-1-yl)-2-[(3-fluorophenyl)sulfonyl]phenyl}acetamide maleate] |  |  |  |  |  | Δ-Wt (%) DMSG: 0-90% RH ([1]; maleate): 0.3%; Stability at high Temp (70° C.) ([2]; listed as form II, maleate): excellent physical stability; Stability at high Temp (70° C.) ([2]; maleate): Stable; Stability at high RH (88%) ([2]; listed as form II, maleate): excellent physical stability; Stability at high RH (88%) ([2]; maleate): Stable
CC(=O)Nc1cc(N2CCCNCC2)ccc1S(=O)(=O)c1cccc(F)c1.Cl [Example 2, N-{5-(1,4-diazepan-1-yl)-2-[(3-fluorophenyl)sulfonyl]phenyl}acetamide Hydrochloride] | 0.8% | Stable | Stable | lower moisture absorption | better physical stability | 
CC(=O)Nc1cc(N2CCCNCC2)ccc1S(=O)(=O)c1cccc(F)c1.O=C(O)/C=C\C(=O)O [maleate, N-{5-(1,4-diazepan-1-yl)-2-[(3-fluorophenyl)sulfonyl]phenyl}acetamide maleate] |  |  |  | lower moisture absorption | better physical stability | 
CC(=O)Nc1cc(N2CCCNCC2)ccc1S(=O)(=O)c1cccc(F)c1.CS(=O)(=O)O [Example 1, N-{5-(1,4-diazepan-1-yl)-2-[(3-fluorophenyl)sulfonyl]phenyl}acetamide Methanesulfonate] | Deliquesced | Stable | Deliquesced |  |  | 
CC(=O)Nc1cc(N2CCCNCC2)ccc1S(=O)(=O)c1cccc(F)c1.Cc1ccc(S(=O)(=O)O)cc1 [Example 8, N-{5-(1,4-diazepan-1-yl)-2-[(3-fluorophenyl)sulfonyl]phenyl}acetamide Tosylate] | 1.9% | Stable | Stable | lower moisture absorption | better physical stability | 
CC(=O)Nc1cc(N2CCCNCC2)ccc1S(=O)(=O)c1cccc(F)c1.O=C(O)/C=C\C(=O)O [Example 4, N-{5-(1,4-diazepan-1-yl)-2-[(3-fluorophenyl)sulfonyl]phenyl}acetamide Maleate, Crystal Form I] | 0.7% | Stable | Stable |  |  | Stability at high Temp (70° C.) ([2]; listed as form I): excellent physical stability; Stability at high RH (88%) ([2]; listed as form I): excellent physical stability; thermodynamic preference between crystal forms [3]: thermodynamically favored relative to form II
CC(=O)Nc1cc(N2CCCNCC2)ccc1S(=O)(=O)c1cccc(F)c1.O=C(O)CC(O)(CC(=O)O)C(=O)O [Example 6, N-{5-(1,4-diazepan-1-yl)-2-[(3-fluorophenyl)sulfonyl]phenyl}acetamide Hemi-citrate] | 2.5% | Stable | Unstable*** |  |  | 
CC(=O)Nc1cc(N2CCCNCC2)ccc1S(=O)(=O)c1cccc(F)c1.O=C(O)C(F)(F)F [Example 3, N-{5-(1,4-diazepan-1-yl)-2-[(3-fluorophenyl)sulfonyl]phenyl}acetamide Trifluoroacetate] | 0.8% | Stable | Stable | lower moisture absorption | better physical stability | 
CC(=O)Nc1cc(N2CCCNCC2)ccc1S(=O)(=O)c1cccc(F)c1 [Example 11, N-{5-(1,4-diazepan-1-yl)-2-[(3-fluorophenyl)sulfonyl]phenyl}acetamide Hemi-tartrate] |  | Stable | Unstable** |  |  | 
